Test results reported in US11400076B2, “Cancer stem cell inhibitor” (KEIO UNIVERSITY, priority 2017, dated 2022).

Legend:
[1] = tested on: cancer stem cells (spheroid); test: Spheroid cell death monitored with propidium iodide (PI); format: cell-based, mice; settings: for cell death (PI positive area): spheroid, PI added, monitored over time, FIG. 4
Method: In accordance with the literature (Sampetrean O. et. al., Neoplasia, 13(9) 2011, 784 to 791), the subventricular zone was resected from Ink4a/Arf deficient mice and subjected to trypsin treatment to obtain spheroid-forming cells. The resulting spheroids were cultured in a culture medium containing no differentiation-inducing component (DMEM/F12 in which 20 ng/mL of EGF, 20 ng/mL of FGF, B27 supplement in which vitamin A was removed, 200 ng/mL of heparan sulfate, 100 U/mL of penicillin, and 100 U/mL of streptomycin were added) in a flow of 5% carbon dioxide at 37° C. […] These cells were transplanted to the brains of C57BL/6 mice, then the formed brain tumors were resected and subjected to trypsin treatment to obtain cells. Drug-resistant or fluorescent reporter-positive cells were sorted, and then cell cycle markers were introduced into part of the cells. Thus-obtained spheroid-forming cells were cultured under the above-described culturing condition, and used as a sample.

[2] = tested on: mitochondrial complex II; test: Expression levels of mitochondrial complex I to V by electrophoresis and Western Blot; format: cell-based, mice; settings: protein extracted from cells of Example 1, FIG. 7
Method: Furthermore, protein was extracted from cells of Example 1, and the expression levels of mitochondrial complex I to V were measured by electrophoresis and Western Blot.

[3] = tested on: reactive oxygen species (ROS) in mitochondria; test: Mito Sox staining, mitochondrial ROS by flow cytometry; format: cell-based, mice; settings: FIG. 8
Text: Using Mito Sox staining, reactive oxygen species (ROS) in mitochondria was quantified by flow cytometry for the cells cultured according to Example 1, with or without doranidazole, misonidazole, or metronidazole.

[4] = in vivo; cited from earlier work
[5] = tested on: cancer stem cells (spheroid-forming cells); test: Spheroid culture of cancer stem cells in 96-well plate with analyte; format: cell-based, mice; settings: various concentration of analytes, medium without differentiation-inducing component, FIG. 2
Method: (§1) In accordance with the literature ([…]. et. al., Neoplasia, 13(9) 2011, 784 to 791), the subventricular zone was resected from Ink4a/Arf deficient mice and subjected to trypsin treatment to obtain spheroid-forming cells. The resulting spheroids were cultured in a culture medium containing no differentiation-inducing component (DMEM/F12 in which 20 ng/mL of EGF, 20 ng/mL of FGF, B27 supplement in which vitamin A was removed, 200 ng/mL of heparan sulfate, 100 U/mL of penicillin, and 100 U/mL of streptomycin were added) in a flow of 5% carbon dioxide at 37° C. Then, a constitutively active, mutated form of H-Ras and, as necessary, reporter cassettes for detecting, for example, fluorescent signals or selection marker for cell selection, for example, drug-resistant cassettes, were incorporated into cancer stem cells for transformation, and cultured to obtain spheroid-forming cells. These cells were transplanted to the brains of C57BL/6 mice, then the formed brain tumors were resected and subjected to trypsin treatment to obtain cells. Drug-resistant or fluorescent reporter-positive cells were sorted, and then cell cycle markers were introduced into part of the cells. Thus-obtained spheroid-forming cells were cultured under the above-described culturing condition, and used as a sample. […]

[6] = tested on: cancer stem cells (spheroid-forming cells); test: Monolayer culture of cancer stem cells, cell cycle and growth; format: cell-based, mice; settings: various concentrations, FIG. 3
Method: as §1, with “sample. The above cells were subjected to monolayer culture.” for “sample.”

[7] = tested on: cancer stem cells; test: ATP levels in cancer stem cells; format: cell-based, mice; settings: 21% oxygen (normoxic) and 1% oxygen (hypoxic), FIG. 6
Method: (§2) Since the cell cycle was arrested in the G1 phase, a decrease in energy metabolism was suspected. ATP levels under 21% oxygen (normoxic condition) and 1% oxygen (hypoxic condition) were measured using the same cells as in Example 1. […] From this, suppression of mitochondrial function was suspected, and so, mitochondrial function was evaluated by extracellular flux analysis.

[8] = tested on: mitochondria in cancer stem cells; test: Mitochondrial function by extracellular flux analysis; format: cell-based, mice; settings: 21% oxygen (normoxic) and 1% oxygen (hypoxic), FIG. 6
Method: as §2

[9] = tested on: undifferentiated cancer stem cells; test: Effect with altered degree of induction of differentiation by serum; format: cell-based, mice; settings: serum-free vs serum-containing medium, 4 days, FIG. 9
Text: Using the method similar to Example 1, the degree of induction of differentiation was altered by changing the culture mediums, to observe the effect thereby. Specifically, a group cultured in a serum-free culture medium of Example 1 for consecutive 4 days; a group cultured in a serum-free culture medium for 3 days, and then cultured in a serum-containing culture medium for 1 day; a group cultured in a serum-containing culture medium for 3 days, and then cultured in a serum-free culture medium for 1 day; and the remaining one group cultured in a serum-containing culture medium for 4 days; were prepared. According to such culturing, the degree of induction of differentiation by serum was altered and the effect of doranidazole was confirmed.

[10] = tested on: cancer stem cells; test: Radiation-induced double-strand break, Hoechst 33324 and γH2AX double staining; format: cell-based, mice; settings: irradiated, hypoxic condition, FIG. 10
Text: Cells cultured according to the method of Example 1, with or without doranidazole, were irradiated, followed by double staining with Hoechst 33324 and γH2AX, and then double-strand break was quantified.

SMILES | cell death (PI positive area) [1] | expression of complex II [2] | ROS in mitochondria [3] | LD50 [4] | growth of spheroids [5] | cell cycle [6] | growth [6] | type of cell death ([1]; inhibitor comparison, FIG. 5) | ATP content of cancer stem cells [7] | oxygen consumption of mitochondria [8] | reserve capacity of mitochondria [8] | effect depending on degree of induction of differentiation by serum [9] | radiation-induced double-strand break [10] | suppression of doranidazole-induced cell death ([1]; compared to DMSO, necrostatin 1 and Z-VAD-FMK, FIG. 5)
COCC(O)Cn1ccnc1[N+](=O)[O-] (centres unmarked) [misonidazole] | the cell death was similarly confirmed | remarkably decreased | significantly increases | about 1 g/kg |  |  |  |  |  |  |  |  |  | 
Cc1ncc([N+](=O)[O-])n1CCO [metronidazole] | no cell death was observed |  | not observed |  |  |  |  |  |  |  |  |  |  | 
O=[N+]([O-])c1nccn1COC(CO)C(O)CO (centres unmarked) [doranidazole] | cell death is induced by doranidazole in dose dependent manner | remarkably decreased | significantly increases | ≥ 5000 mg/kg | suppresses the growth of spheroids | arrests the cell cycle in the G1 phase | suppresses growth | ferroptosis | decreased | decreased depending on the concentration | decreased depending on the concentration | when the degree of induction of differentiation by serum is low, the effect of doranidazole is remarkable | significantly enhances | 
CCOC(=O)c1ccc(NC2CCCCC2)c(N)c1 [ferrostatin 1] |  |  |  |  |  |  |  |  |  |  |  |  |  | significantly suppressed
